Data as given in patent US7358042B2, “Triosephosphate isomerase directed diagnostics and therapeutics for multidrug resistant neoplastic disease” (priority 2003, dated 2008).

Experiments:
[1] = test system: hematological tumor cells; experiment: Triosephosphate isomerase vaccination of mice injected with hematological tumor cells; type: in vivo; details: mice vaccinated prior to injection of the tumor cells versus not vaccinated
[2] = test system: antigen-positive E3 cell line; details: read-out: IC50 (cytotoxicities); cited from earlier work
E3 target cells = details: cited from earlier work

**Q.** Which tumor size [1] does the source give for “triosephosphate isomerase: purified full length murine triosephosphate isomerase protein used as vaccine antigen, may be administered with an adjuvant” here?
**A.** smaller

**Q.** With `O=c1[nH]c(=O)n([C@H]2C[C@H](O)[C@@H](CO)O2)cc1F` [FUDR, 5-fluoro-2′-deoxyuridine] as the molecule, how does the IC50 [2] read?
**A.** 0.0004 µM

**Q.** For `CC(=O)[C@]1(O)Cc2c(O)c3c(c(O)c2[C@@H](O[C@H]2C[C@H](N)[C@H](O)[C@H](C)O2)C1)C(=O)c1ccccc1C3=O` [Ida, Idarubicin], which IC50 (E3 target cells) is on record?
**A.** 0.12 µM
